Data: ChEMBL document CHEMBL5154941, “Structural Modifications of Nimodipine Lead to Novel PDE1 Inhibitors with Anti-pulmonary Fibrosis Effects” (J Med Chem, 2022)
The source made the active and inactive calls. The calls are words filed in the database; no cut-off is given here.

How the values were obtained:
Rattus norvegicus [1] = test: Antifibrotic activity in bleomycin-induced Sprague-Dawley rat pulmonary fibrosis model assessed as decrease in relaxation time at 2.5 to 5 mg/kg, ip administered daily for 28 days; assay type: functional, organism-based; settings: dose 2.5-5 mg/kg, time 28.0 day
[2] = Half life in Sprague-Dawley rat at 5 mg/kg, iv; assay type: ADME, organism-based; settings: in vivo
Rattus norvegicus [3] = test: Antifibrotic activity in bleomycin-induced Sprague-Dawley rat pulmonary fibrosis model assessed as decrease in end-expiratory pause at 2.5 to 5 mg/kg, ip administered daily for 28 days; assay type: functional, organism-based; settings: dose 2.5-5 mg/kg, time 28.0 day
Rattus norvegicus [4] = test: Antifibrotic activity in bleomycin-induced Sprague-Dawley rat pulmonary fibrosis model assessed as increase in respiratory rate at 2.5 to 5 mg/kg, ip administered daily for 28 days; assay type: functional, organism-based; settings: dose 2.5-5 mg/kg, time 28.0 day
[5] = biological target: cGMP-dependent 3',5'-cyclic phosphodiesterase (Homo sapiens, UniProt O00408); test: Inhibition of PDE2A (580 to 919 residues) (unknown origin) expressed in Escherichia coli BL21 using [3H]-cGMP as substrate measured for 15 mins by liquid scintillation counter method
[6] = biological target: 3',5'-cyclic-AMP phosphodiesterase 4B (Homo sapiens, UniProt Q07343); test: Inhibition of PDE4B2 (152 to 487 residues) (unknown origin) expressed in Escherichia coli BL21 measured for 15 mins by liquid scintillation counter method
[7] = biological target: cGMP-specific 3',5'-cyclic phosphodiesterase (Homo sapiens, UniProt O76074); test: Inhibition of PDE5A1 (535 to 860 residues) (unknown origin) expressed in Escherichia coli BL21 [3H]-cGMP as substrate measured for 15 mins by liquid scintillation counter method
[8] = biological target: High affinity 3',5'-cyclic-AMP phosphodiesterase 7A (Homo sapiens, UniProt Q13946); test: Inhibition of PDE7A1 (130-482 residues) (unknown origin) expressed in Escherichia coli BL21 using [3H]-cAMP as substrate measured for 15 mins by liquid scintillation counter method
[9] = biological target: High affinity cGMP-specific 3',5'-cyclic phosphodiesterase 9A (Homo sapiens, UniProt O76083); test: Inhibition of PDE9A2 (181 to 506 residues) (unknown origin) expressed in Escherichia coli BL21 using [3H]-cGMP as substrate measured for 15 mins by liquid scintillation counter method
[10] = biological target: cAMP and cAMP-inhibited cGMP 3',5'-cyclic phosphodiesterase 10A (Homo sapiens, UniProt Q9Y233); test: Inhibition of PDE10A (449 to 770 residues) (unknown origin) expressed in Escherichia coli BL21 using [3H]-cAMP as substrate measured for 15 mins by liquid scintillation counter method
[11] = Cmax in Sprague-Dawley rat at 5 mg/kg, iv; assay type: ADME, organism-based; design: dose 5 mg/kg, route iv; settings: in vivo
[12] = AUC (0 to t) in Sprague-Dawley rat at 5 mg/kg, iv; assay type: ADME, organism-based; design: dose 5 mg/kg, route iv; settings: in vivo
[13] = AUC (0 to infinity) in Sprague-Dawley rat at 5 mg/kg, iv; assay type: ADME, organism-based; design: time infinity, dose 5 mg/kg, route iv; settings: in vivo
[14] = MRT (0 to t) in Sprague-Dawley rat at 5 mg/kg, iv; assay type: ADME, organism-based; settings: in vivo
[15] = Volume of distribution at steady state in Sprague-Dawley rat at 5 mg/kg, iv; assay type: ADME, organism-based; settings: in vivo, read-out: Vdss
Rattus norvegicus [16] = test: Antifibrotic activity in bleomycin-induced Sprague-Dawley rat pulmonary fibrosis model assessed as decrease in enhanced pause at 150 mg/kg, po administered daily for 28 days; assay type: functional, organism-based; settings: time 28.0 day
Rattus norvegicus [17] = test: Antifibrotic activity in bleomycin-induced Sprague-Dawley rat pulmonary fibrosis model assessed as decrease in relaxation time at 150 mg/kg, po administered daily for 28 days; assay type: functional, organism-based; settings: time 28.0 day
Rattus norvegicus [18] = test: Antifibrotic activity in bleomycin-induced Sprague-Dawley rat pulmonary fibrosis model assessed as decrease in end-expiratory pause at 150 mg/kg, po administered daily for 28 days; assay type: functional, organism-based; settings: time 28.0 day
Rattus norvegicus [19] = test: Antifibrotic activity in bleomycin-induced Sprague-Dawley rat pulmonary fibrosis model assessed as increase in respiratory rate at 150 mg/kg, po administered daily for 28 days; assay type: functional, organism-based; settings: time 28.0 day
Rattus norvegicus [20] = test: Antifibrotic activity in bleomycin-induced Sprague-Dawley rat lung fibrosis model assessed as reduced septal enlargement at 5 mg/kg, ip administered daily for 28 days by hematoxylin and eosin staining based histopathological analysis; assay type: functional, organism-based; settings: time 28.0 day
Rattus norvegicus [21] = test: Antifibrotic activity in bleomycin-induced Sprague-Dawley rat lung fibrosis model assessed as decrease in lung fibrosis at 2.5 to 5 mg/kg, ip administered daily for 28 days by Masson's trichrome staining based analysis; assay type: functional, organism-based; settings: dose 2.5-5 mg/kg, time 28.0 day
Rattus norvegicus [22] = test: Antifibrotic activity in bleomycin-induced Sprague-Dawley rat lung fibrosis model assessed as suppression of TGF-beta1 level at 2.5 to 5 mg/kg, ip administered daily for 28 days by Western blot analysis; assay type: functional, organism-based; settings: dose 2.5-5 mg/kg, time 28.0 day
Rattus norvegicus [23] = test: Antifibrotic activity in bleomycin-induced Sprague-Dawley rat lung fibrosis model assessed as increase in cGMP level at 2.5 to 5 mg/kg, ip administered daily for 28 days by ELISA analysis; assay type: functional, organism-based; settings: dose 2.5-5 mg/kg, time 28.0 day
HLF [24] = test: Antifibrotic activity in TGF-beta induced HLF cell assessed as suppression of Col-I level incubated for 48 hrs by Western blot analysis; assay type: functional, cell-based; settings: Homo sapiens, DDE = dose-dependent effect
HLF [25] = test: Antifibrotic activity in TGF-beta induced HLF cell assessed as suppression of alpha-SMA level incubated for 48 hrs by Western blot analysis; assay type: functional, cell-based; settings: Homo sapiens, DDE = dose-dependent effect
HLF [26] = test: Antifibrotic activity in TGF-beta induced HLF cell assessed as suppression of FN level incubated for 48 hrs by Western blot analysis; assay type: functional, cell-based; settings: Homo sapiens, DDE = dose-dependent effect
HLF [27] = test: Antifibrotic activity in TGF-beta induced HLF cell assessed as suppression of Col-I level at 10 uM incubated for 48 hrs by Western blot analysis; assay type: functional, cell-based; settings: Homo sapiens
HLF [28] = test: Antifibrotic activity in TGF-beta induced HLF cell assessed as suppression of FN level at 10 uM incubated for 48 hrs by Western blot analysis; assay type: functional, cell-based; settings: Homo sapiens
HLF [29] = test: Antifibrotic activity in TGF-beta induced HLF cell assessed as decrease in FN level at 10 to 20 uM incubated for 48 hrs by DAPI staining based immunofluorescence microscopic analysis; assay type: functional; settings: Homo sapiens, dose 10-20 µM
HLF [30] = test: Antifibrotic activity in TGF-beta induced HLF cell assessed as decrease in alpha-SMA level at 10 to 20 uM incubated for 48 hrs by DAPI staining based immunofluorescence microscopic analysis; assay type: functional; settings: Homo sapiens, dose 10-20 µM
Rattus norvegicus [31] = test: Antifibrotic activity in bleomycin-induced Sprague-Dawley rat pulmonary fibrosis model assessed as smaller lung foci at 5 mg/kg, ip administered daily for 28 days by H&E staining based histopathological analysis; assay type: functional, organism-based; settings: time 28.0 day
Cytochrome P450 2C19 = Cytochrome P450 2C19 (Homo sapiens, UniProt P33261); test: Inhibition of CYP2C19 in human liver microsomes at 25 uM in the presence of NADPH; assay type: ADME, Microsome
[32] = biological target: Voltage-gated inwardly rectifying potassium channel KCNH2 (Homo sapiens, UniProt Q12809); test: Inhibition of hERG ion channel expressed in CHO cells by automated patch clamp electrophysiology method; assay type: toxicity, cell-based
[33] = Acute toxicity in overnight fasted KM mouse at 2000 mg/kg, po dosed daily for 14 days; assay type: organism-based; settings: in vivo, 336 h, time 14 day
[34] = biological target: cGMP-inhibited 3',5'-cyclic phosphodiesterase 3A (Homo sapiens, UniProt Q14432); test: Inhibition of PDE3A (679 to 1087 residues) (unknown origin) expressed in Escherichia coli BL21 using [3H]-cAMP as substrate at 10000 nM measured for 15 mins by liquid scintillation counter method
cGMP-inhibited 3',5'-cyclic phosphodiesterase 3A, sequence (Q14432 whole entry, the tested form may be a part): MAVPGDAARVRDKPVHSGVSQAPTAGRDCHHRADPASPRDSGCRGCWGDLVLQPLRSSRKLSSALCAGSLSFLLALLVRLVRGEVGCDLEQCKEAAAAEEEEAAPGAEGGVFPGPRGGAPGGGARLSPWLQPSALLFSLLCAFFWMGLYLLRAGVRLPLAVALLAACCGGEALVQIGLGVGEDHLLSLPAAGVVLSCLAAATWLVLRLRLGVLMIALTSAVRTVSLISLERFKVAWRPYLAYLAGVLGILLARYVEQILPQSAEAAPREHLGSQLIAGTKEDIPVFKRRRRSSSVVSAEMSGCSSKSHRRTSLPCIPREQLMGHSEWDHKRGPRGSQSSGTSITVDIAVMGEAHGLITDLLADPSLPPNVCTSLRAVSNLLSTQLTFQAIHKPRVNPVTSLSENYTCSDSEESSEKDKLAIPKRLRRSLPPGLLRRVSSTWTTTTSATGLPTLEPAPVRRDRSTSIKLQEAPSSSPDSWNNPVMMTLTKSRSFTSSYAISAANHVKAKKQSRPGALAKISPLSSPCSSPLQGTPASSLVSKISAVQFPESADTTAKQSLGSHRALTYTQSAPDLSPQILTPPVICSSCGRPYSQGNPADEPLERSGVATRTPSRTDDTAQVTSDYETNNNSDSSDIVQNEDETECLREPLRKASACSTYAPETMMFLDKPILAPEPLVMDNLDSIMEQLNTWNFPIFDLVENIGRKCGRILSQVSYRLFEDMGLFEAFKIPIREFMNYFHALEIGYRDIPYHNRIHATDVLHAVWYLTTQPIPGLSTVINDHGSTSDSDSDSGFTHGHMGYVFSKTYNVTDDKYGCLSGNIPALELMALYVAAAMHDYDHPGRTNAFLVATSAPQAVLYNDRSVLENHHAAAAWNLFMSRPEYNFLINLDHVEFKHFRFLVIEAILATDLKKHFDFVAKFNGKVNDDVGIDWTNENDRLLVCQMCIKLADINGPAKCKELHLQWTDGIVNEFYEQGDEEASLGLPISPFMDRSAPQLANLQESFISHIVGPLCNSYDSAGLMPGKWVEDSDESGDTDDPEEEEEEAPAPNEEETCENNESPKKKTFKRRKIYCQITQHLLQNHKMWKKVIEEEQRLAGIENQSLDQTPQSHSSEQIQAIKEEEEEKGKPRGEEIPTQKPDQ

Voltage-gated inwardly rectifying potassium channel KCNH2, sequence (Q12809 whole entry): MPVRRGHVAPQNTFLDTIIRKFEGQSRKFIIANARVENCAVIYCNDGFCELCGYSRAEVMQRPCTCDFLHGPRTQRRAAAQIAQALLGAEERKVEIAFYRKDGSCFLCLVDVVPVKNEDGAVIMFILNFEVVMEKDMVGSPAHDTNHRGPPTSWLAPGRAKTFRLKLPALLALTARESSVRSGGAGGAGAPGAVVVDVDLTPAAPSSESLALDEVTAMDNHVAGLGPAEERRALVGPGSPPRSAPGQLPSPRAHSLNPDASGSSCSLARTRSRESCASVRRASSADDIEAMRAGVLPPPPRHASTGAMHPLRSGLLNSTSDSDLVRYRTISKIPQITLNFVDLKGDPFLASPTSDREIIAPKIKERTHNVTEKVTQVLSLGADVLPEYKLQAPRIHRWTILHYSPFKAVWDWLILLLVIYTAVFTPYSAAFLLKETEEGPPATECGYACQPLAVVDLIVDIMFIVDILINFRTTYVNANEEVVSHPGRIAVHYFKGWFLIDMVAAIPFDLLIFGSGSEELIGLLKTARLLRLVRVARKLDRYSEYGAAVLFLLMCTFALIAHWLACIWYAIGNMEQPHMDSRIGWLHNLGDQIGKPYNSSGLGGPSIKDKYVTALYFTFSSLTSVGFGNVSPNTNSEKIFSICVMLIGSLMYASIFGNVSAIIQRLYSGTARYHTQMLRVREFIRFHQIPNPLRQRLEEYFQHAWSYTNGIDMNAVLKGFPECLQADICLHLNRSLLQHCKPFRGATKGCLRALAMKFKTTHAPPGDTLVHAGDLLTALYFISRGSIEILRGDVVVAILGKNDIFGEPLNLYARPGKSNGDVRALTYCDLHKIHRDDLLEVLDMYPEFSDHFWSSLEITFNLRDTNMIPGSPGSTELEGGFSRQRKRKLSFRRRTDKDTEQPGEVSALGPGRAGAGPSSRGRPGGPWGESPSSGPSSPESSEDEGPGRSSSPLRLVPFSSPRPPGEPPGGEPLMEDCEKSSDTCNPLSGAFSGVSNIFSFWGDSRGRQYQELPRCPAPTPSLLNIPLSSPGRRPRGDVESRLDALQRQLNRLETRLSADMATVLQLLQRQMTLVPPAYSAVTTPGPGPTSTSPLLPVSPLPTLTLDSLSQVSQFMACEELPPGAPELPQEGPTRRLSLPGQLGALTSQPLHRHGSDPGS
High affinity cGMP-specific 3',5'-cyclic phosphodiesterase 9A, sequence (O76083 whole entry, the tested form may be a part): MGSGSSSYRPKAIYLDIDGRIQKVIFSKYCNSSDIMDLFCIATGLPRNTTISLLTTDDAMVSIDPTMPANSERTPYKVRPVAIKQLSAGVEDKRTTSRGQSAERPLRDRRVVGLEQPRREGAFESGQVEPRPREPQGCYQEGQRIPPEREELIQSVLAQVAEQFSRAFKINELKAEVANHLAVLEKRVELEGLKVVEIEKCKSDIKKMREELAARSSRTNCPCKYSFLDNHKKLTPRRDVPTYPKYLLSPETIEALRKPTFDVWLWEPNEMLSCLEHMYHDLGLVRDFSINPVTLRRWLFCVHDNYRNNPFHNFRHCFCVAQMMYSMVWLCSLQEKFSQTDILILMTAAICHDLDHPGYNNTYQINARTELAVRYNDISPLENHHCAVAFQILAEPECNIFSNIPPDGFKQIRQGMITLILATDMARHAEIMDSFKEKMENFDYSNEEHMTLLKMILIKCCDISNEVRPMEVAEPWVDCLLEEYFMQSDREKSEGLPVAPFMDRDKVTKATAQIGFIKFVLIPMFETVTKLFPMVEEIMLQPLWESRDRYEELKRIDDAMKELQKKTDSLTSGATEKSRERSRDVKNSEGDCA
High affinity 3',5'-cyclic-AMP phosphodiesterase 7A, sequence (Q13946 whole entry, the tested form may be a part): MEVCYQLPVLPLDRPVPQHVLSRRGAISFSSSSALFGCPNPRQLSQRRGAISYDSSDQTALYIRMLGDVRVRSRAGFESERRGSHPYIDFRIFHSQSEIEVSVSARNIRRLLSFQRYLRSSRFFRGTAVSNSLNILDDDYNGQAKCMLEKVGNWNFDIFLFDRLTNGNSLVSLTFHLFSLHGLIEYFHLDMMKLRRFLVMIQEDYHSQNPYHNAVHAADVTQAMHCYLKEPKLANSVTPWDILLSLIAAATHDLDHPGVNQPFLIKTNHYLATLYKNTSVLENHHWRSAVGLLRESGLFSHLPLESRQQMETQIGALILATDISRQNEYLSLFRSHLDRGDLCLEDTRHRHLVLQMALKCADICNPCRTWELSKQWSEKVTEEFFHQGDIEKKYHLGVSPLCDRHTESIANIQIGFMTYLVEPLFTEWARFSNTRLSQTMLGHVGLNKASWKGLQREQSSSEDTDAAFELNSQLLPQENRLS
3',5'-cyclic-AMP phosphodiesterase 4B, sequence (Q07343 whole entry, the tested form may be a part): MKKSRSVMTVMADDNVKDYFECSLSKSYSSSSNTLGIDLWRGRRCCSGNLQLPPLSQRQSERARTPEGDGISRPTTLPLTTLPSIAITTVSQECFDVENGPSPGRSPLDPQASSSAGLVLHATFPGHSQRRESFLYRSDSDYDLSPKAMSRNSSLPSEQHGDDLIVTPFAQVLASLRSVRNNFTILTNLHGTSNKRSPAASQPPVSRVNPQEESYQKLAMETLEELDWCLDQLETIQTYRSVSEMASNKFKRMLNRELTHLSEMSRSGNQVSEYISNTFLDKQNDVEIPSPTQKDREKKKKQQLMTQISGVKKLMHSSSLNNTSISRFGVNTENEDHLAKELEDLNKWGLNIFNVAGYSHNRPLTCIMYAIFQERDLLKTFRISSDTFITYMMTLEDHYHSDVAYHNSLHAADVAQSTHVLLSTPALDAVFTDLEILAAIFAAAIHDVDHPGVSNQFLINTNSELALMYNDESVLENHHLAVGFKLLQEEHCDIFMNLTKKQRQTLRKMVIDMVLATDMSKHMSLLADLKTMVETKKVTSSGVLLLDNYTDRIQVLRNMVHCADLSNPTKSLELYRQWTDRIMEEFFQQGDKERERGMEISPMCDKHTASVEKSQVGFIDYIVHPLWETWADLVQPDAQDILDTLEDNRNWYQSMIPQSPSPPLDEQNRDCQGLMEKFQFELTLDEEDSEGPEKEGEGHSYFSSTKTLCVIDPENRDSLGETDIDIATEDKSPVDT
cGMP-dependent 3',5'-cyclic phosphodiesterase, sequence (O00408 whole entry, the tested form may be a part): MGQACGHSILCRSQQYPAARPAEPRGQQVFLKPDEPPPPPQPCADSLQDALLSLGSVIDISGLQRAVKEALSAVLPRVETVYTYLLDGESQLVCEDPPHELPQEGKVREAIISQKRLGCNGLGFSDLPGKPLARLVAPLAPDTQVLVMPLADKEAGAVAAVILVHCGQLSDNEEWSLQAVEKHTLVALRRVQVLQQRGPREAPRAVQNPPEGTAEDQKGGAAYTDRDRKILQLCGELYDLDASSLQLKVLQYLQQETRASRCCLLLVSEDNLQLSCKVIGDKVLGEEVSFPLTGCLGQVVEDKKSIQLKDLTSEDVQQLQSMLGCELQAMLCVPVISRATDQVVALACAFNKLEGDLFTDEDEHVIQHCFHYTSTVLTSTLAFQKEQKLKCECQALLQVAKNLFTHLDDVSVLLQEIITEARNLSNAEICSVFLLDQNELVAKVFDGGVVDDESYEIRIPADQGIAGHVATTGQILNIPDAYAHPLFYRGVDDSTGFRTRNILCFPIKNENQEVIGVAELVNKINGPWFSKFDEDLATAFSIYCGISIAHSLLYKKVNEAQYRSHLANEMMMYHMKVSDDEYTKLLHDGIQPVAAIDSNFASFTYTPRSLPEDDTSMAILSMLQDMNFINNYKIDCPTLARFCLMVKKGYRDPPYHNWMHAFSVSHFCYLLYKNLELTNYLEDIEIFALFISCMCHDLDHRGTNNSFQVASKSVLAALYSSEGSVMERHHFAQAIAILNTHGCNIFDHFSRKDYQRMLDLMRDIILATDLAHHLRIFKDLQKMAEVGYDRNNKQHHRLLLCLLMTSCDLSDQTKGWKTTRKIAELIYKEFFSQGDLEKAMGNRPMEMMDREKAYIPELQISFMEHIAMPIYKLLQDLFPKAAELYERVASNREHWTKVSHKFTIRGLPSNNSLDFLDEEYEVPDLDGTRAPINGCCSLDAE

CC1=C(C(=O)O[C@H](C)c2ccccc2)C(c2ccc3c(cnn3C)c2)C(C(=O)O[C@H](C)c2ccccc2)=C(C)N1
Activity (Rattus norvegicus [1]): Active | half-life [2]: 220 min | Activity (Rattus norvegicus [3]): Active | Activity (Rattus norvegicus [4]): Active | IC50 [5]: 5.13 µM | IC50 [6]: 619 nM | IC50 [7]: 1810 nM | IC50 [8]: 1400 nM | IC50 [9]: > 10 µM | IC50 [10]: 1310 nM | Cmax [11]: 2830 ng/mL | AUC(0-t) [12]: 4560 ng·h/mL | AUC(0-inf) [13]: 4590 ng·h/mL | MRT last [14]: 3.44 h | Vd [15]: 3.81 L/kg | Activity (Rattus norvegicus [16]): Active | Activity (Rattus norvegicus [17]): Active | Activity (Rattus norvegicus [18]): Active | Activity (Rattus norvegicus [19]): Active | Activity (Rattus norvegicus [20]): Active | Activity (Rattus norvegicus [21]): Active | Activity (Rattus norvegicus [22]): Active | Activity (Rattus norvegicus [23]): Active | Activity (HLF [24]): Dde | Activity (HLF [25]): Dde | Activity (HLF [26]): Dde | Activity (HLF [27]): Active | Activity (HLF [28]): Active | Activity (HLF [29]): Active | Activity (HLF [30]): Active | Activity (Rattus norvegicus [31]): Active | IC50 (Cytochrome P450 2C19): 3.9 µM | IC50 [32]: > 40 µM | Activity [33]: Non-Toxic | inhibition [34]: < 50%
